Relative potency data for nine molecules are collected here from ChEMBL document CHEMBL1123073, “Conjugates of catecholamines. 6. Synthesis and beta-adrenergic activity of N-(hydroxyalkyl)catecholamine derivatives” (1985).

This assay is described as follows: Relative potency was determined in vitro by measuring the accumulation of cyclic AMP in SV-49 mouse lymphoma cells relative to dl-isoproterenol. The class given is functional.

Molecule `Cc1ccc(C(=O)OCCCC(C)NCC(O)c2ccc(O)c(O)c2)cc1.O=P(O)(O)O` (centres undefined) had a Relative potency of 0.0063.
In the case of `Cc1ccc(C(=O)NC(=O)OCCCC(C)NCC(O)c2ccc(O)c(O)c2)cc1.Cl` (centres undefined) it was 73; in that of `CC(CCO)NCC(O)c1ccc(O)c(O)c1.O=P(O)(O)O` (centres undefined), 0.012.
In the case of `CCCCNC(=O)OCCCC(C)NCC(O)c1ccc(O)c(O)c1.O=P(O)(O)O` (centres undefined) it was 190; in that of `Cc1ccc(NC(=O)OCCCCC(C)NCC(O)c2ccc(O)c(O)c2)cc1.O=P(O)(O)O` (centres undefined), 1.3; in that of `Cc1ccc(NC(=O)OCCCC(C)NCC(O)c2ccc(O)c(O)c2)cc1.O=P(O)(O)O` (centres undefined), 0.092.
On to `CC(CCCO)NCC(O)c1ccc(O)c(O)c1.O=P(O)(O)O` (centres undefined), for which the Relative potency amounted to 1.3.
In the case of `CC(CCCOC(=O)NC1CCCCC1)NCC(O)c1ccc(O)c(O)c1.Cl` (centres undefined) it was 29; in that of `O=P(O)(O)O.OCCCNCC(O)c1ccc(O)c(O)c1` (centres undefined), 0.0058.
